Test results from patent publication US8691949B2, “Peptide having anti-diabetic activity and use thereof” (MG Pharma Inc., priority 2008, dated 2014).
Residues, ends and D or L forms follow the SMILES beside them.

Test: in vivo
Details: mouse, po, 2 g/kg body weight

With `CC(C)C[C@H](NC(=O)[C@H](CCC(=O)O)NC(=O)[C@H](CO)NC(=O)[C@@H](N)CC(C)C)C(=O)O` [LSEL, Leu-Ser-Glu-Leu] (H-LSEL-OH) the LD50 was over 2000 mg/kg.
